Assay results published in patent US8580309B2, “Antimicrobial mixtures” (priority 2006, dated 2013).

How the values were obtained:
[1] = tested on: Staphylococcus aureus NCTC 6571; experiment: Lethal photosensitisation of S. aureus by gold nanoparticle-photosensitiser mixtures under white light, viable counting; format: cell-based; conditions: preliminary experiments, 30 minutes light exposure
Procedure: Gold nanoparticles (2.0 nm diameter; British Biocell International) in water (15×10^13 particles per ml) were mixed with an equal volume of an aqueous solution of toluidine blue O (40 μM) and left at room temperature for 15 minutes. 100 μl of the gold-TB solution was added to 100 μl of a suspension of Staphylococcus aureus NCTC 6571 in phosphate buffered saline (PBS) and this was irradiated with white light from a fluorescent white lamp for 10 minutes. Controls consisted of:
(i) TB (final concentration=10 μM) and bacteria, irradiated for the same period of time,
(ii) nanogold (diluted 1:1 with water) and bacteria, irradiated for the same period of time,
(iii) bacteria without TB or nanogold, not irradiated (“control”).
After irradiation, the number of surviving bacteria was determined by viable counting. […] Note that the TB concentration and light energy dose used were designed to give sub-optimal kills so that differences in efficacy of the TB and the TB-nanogold could be discerned. Preliminary experiments using 30 minutes light exposure achieved total kills of the bacterial suspensions in both cases.
Gold nanoparticles of approximately 15 nm in diameter (batches NN1 and NN2 above) were mixed with an equal volume of aqueous toluidine blue O (TB) and left at room temperature for 15 minutes. TB was used at a final concentration of 1, 5, 10, 20 or 50 μM. […]

[2] = tested on: Staphylococcus aureus NCTC 6571; experiment: Lethal photosensitisation of S. aureus by TBO-tiopronin-gold nanoparticle conjugate, white light, viable counting; format: cell-based; conditions: irradiated with white light for any length of time (15, 30, 45 minutes)

Cc1cc2nc3ccc(N(C)C)cc3[s+]c2cc1N.[Cl-] [TB only, toluidine blue O]
kill of the bacterial suspensions (in words) [1]: total kills | antibacterial effect (in words) [2]: no effect
